Reference: patent US11040035B2, “3-oxo-2,6-diphenyl-2,3-dihydropyridazine-4-carboxamides” (BAYER PHARMA AKTIENGESELLSCHAFT, priority 2016, dated 2021)

How the values were obtained:
[1] = target: T1, AHR (Homo sapiens, UniProt P35869); assay: In vitro assay 2: agonism in human cell line (transactivation assay); settings: Assay 2: AHR-luc Hum Agonism IC50 [M], no kynurenic acid, 20 hours, firefly luciferase
T1 sequence (P35869 11-848): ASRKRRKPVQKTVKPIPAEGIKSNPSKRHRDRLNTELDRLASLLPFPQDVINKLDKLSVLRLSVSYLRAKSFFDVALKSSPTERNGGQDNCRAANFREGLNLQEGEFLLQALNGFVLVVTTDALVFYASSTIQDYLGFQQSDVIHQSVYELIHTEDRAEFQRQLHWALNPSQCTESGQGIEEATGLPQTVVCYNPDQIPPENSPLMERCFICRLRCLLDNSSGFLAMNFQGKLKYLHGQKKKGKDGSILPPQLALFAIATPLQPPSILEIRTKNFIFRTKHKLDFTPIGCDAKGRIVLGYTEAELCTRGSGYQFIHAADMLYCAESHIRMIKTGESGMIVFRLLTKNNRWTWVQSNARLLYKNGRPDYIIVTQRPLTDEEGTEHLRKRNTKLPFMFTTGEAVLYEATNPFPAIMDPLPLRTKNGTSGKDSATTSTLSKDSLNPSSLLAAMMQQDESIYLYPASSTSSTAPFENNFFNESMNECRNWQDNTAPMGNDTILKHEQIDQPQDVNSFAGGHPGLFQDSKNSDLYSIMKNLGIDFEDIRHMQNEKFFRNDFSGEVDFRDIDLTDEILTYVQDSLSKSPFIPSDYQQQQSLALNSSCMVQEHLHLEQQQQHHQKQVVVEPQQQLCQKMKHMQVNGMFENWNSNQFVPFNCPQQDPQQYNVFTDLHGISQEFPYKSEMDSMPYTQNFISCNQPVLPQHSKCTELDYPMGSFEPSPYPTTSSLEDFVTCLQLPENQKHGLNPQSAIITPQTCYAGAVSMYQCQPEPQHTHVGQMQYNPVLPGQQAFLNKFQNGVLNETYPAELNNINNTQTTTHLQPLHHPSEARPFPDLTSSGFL
Experimental: Transactivation Assay in Human Cell Line (In Vitro Assays 1 and 2)
Transactivation assays were carried out in U87 glioblastoma cells (ATCC) endogenously expressing AHR. In addition the cells were stably transfected with an AHR inducible firefly luciferase reporter gene construct that carried AHR-binding sites (DRE) in its promoter and a renilla reporter gene construct with constitutively active promoter.
In Vitro Assay 2: Agonism in Human Cell Line
Cells in medium (tryptophan free RPMI, 1% FCS, 2 mM Glutamine) were grown for 20 hours in absence (negative control) or presence of increasing concentrations of test compounds (typical dilutions: 72 pmol/L, 0.25 nmol/L, 0.89 nmol/L; 3.1 nmol/L, 11 nmol/L, 38 nmol/L, 130 nmol/L, 470 nmol/L, 1.6 μmol/L, 5.7 μmol/L and 20 μmol/L in duplicates). As positive activation control cells were incubated with 300 μM kynurenic acid. Normalization was done by positive and negative controls.
Firefly luciferase activity was determined by the SteadyGlo Luciferase Assay System (Promega, #2520).

[2] = system: AHR-regulated gene CYP1A1; assay: In vitro assay 3: AHR-regulated CYP1A1 expression in human cell line (U937, qPCR); settings: Homo sapiens, U-937, 6 h, read-out: Assay 3: Hum CYP1A1 Antagonism IC50 [M], U937 cells, 200 μM KA, 6 hours, qPCR
Experimental: In Vitro Assay 3: AHR-Regulated CYP1A1 Expression in Human Cell Line
To assess the AHR inhibitory activity of the substances described in this application, the ability thereof to antagonise ligand-induced AHR gene regulation in a dose-dependent manner was quantified. For this purpose, quantitative PCR analysis was used to determine expression of the AHR-regulated gene CYP1A1 in a human monocytic U937 cell line upon stimulation with 200 μM KA in the presence and absence of AHR inhibitor. U937 cells were sown at a concentration of 2×10^5 cells/well in 100 ul of growth medium (RPMI 1640, 20% FCS) in 96-well microtitre plates. CYP1A1 expression was induced with 200 μM KA (positive control) in the presence or absence of the substances for 6 hours. Human U937 cells were typically incubated with eight different concentrations of the substances (1 nM, 3 nM, 10 nM, 30 nM, 100 nM, 300 nM, 1 μM and 3 μM) and analyzed in duplicate on the same microtitre plate. After stimulation, cells were lysed with Nucleic Acid Lysis Solution (#4305895, Applied Biosystems) and RNA was isolated using the 6100 Nucleic Acid Preparation Station (Applied Biosystems) and reverse-transcribed to cDNA using SuperScript VILO cDNA synthesis kit (#11754-250, Invitrogen). Unstimulated cells were used as the negative control. Taqman probes for human CYP1A1 (Hs01054797_g1) and human HPRT (Hs02800695_m1) were used to analyze fold expression of CYP1A1 of HPRT. Quantitation was performed on a Taqman SDS7900HT.

[3] = target: T1, AHR; assay: In vitro assay 1: antagonism in human cell line (transactivation assay, kynurenic acid prestimulated); settings: Assay 1: AHR-luc Hum Antagonism IC50 [M], 150 μM kynurenic acid, 20 hours, firefly luciferase

Row | Structure (SMILES) | IC50 [1] [M] | IC50 [2] [M] | IC50 [3] [M]
1 | Cc1ccc(-c2cc(C(=O)N[C@@H](CO)C(C)C)c(=O)n(-c3cccc(F)c3)n2)cc1 [Example 3, 2-(3-Fluorophenyl)-N-[(2R)-1-hydroxy-3-methylbutan-2-yl]-6-(4-methylphenyl)-3-oxo-2,3-dihydropyridazine-4-carboxamide] |  | 1.31e-07 | 3.03e-07
2 | Cc1ccc(-c2cc(C(=O)NC(CO)C(C)C)c(=O)n(-c3ccccc3)n2)cc1 (stereo not drawn) [Example 70, N-(1-hydroxy-3-methylbutan-2-yl)-6-(4-methylphenyl)-3-oxo-2-phenyl-2,3-dihydropyridazine-4-carboxamide] |  | 1.26e-07 | 9.22e-08
3 | C[C@@H](NC(=O)c1cc(-c2ccc(OC(F)(F)F)cc2)nn(-c2cccc(F)c2)c1=O)C(C)(C)O [Example 381, 2-(3-fluorophenyl)-N-[(2R)-3-hydroxy-3-methylbutan-2-yl]-3-oxo-6-[4-(trifluoromethoxy)phenyl]-2,3-dihydropyridazine-4-carboxamide] | > 2e-05 |  | 4.7e-08
4 | CC(C)(O)CNC(=O)c1cc(-c2ccc(OC(F)(F)F)cc2)nn(-c2cccc(F)c2)c1=O [Example 382, 2-(3-fluorophenyl)-N-(2-hydroxy-2-methylpropyl)-3-oxo-6-[4-(trifluoromethoxy)phenyl]-2,3-dihydropyridazine-4-carboxamide] | > 2e-05 |  | 9e-08
5 | C[C@H](NC(=O)c1cc(-c2ccc(OC(F)F)cc2)nn(-c2cccc(F)c2)c1=O)C(C)(C)O [Example 386, 6-[4-(difluoromethoxy)phenyl]-2-(3-fluorophenyl)-N-[(2S)-3-hydroxy-3-methylbutan-2-yl]-3-oxo-2,3-dihydropyridazine-4-carboxamide] | > 2e-05 |  | 6.5e-08
6 | CC(C)(C)OC(=O)N1C[C@H](O)[C@H](NC(=O)c2cc(-c3ccc(Cl)cc3)nn(-c3cccc(F)c3)c2=O)C1 [Example 387, tert-butyl (3R,4S)-3-({[6-(4-chlorophenyl)-2-(3-fluorophenyl)-3-oxo-2,3-dihydropyridazin-4-yl]carbonyl}amino)-4-hydroxypyrrolidine-1-carboxylate] | > 2e-05 |  | 3.5e-07
7 | O=C(NCC(O)C(F)(F)F)c1cc(-c2ccc(Cl)cc2)nn(-c2cccc(C(F)F)c2)c1=O (stereo not drawn) [Example 389, 6-(4-chlorophenyl)-2-[3-(difluoromethyl)phenyl]-3-oxo-N-(3,3,3-trifluoro-2-hydroxypropyl)-2,3-dihydropyridazine-4-carboxamide] | > 2e-05 |  | 8.8e-07
8 | COC(=O)C(C)(C)CNC(=O)c1cc(-c2ccc(Cl)cc2)nn(-c2cccc(F)c2)c1=O [Example 398, methyl 3-({[6-(4-chlorophenyl)-2-(3-fluorophenyl)-3-oxo-2,3-dihydropyridazin-4-yl]carbonyl}amino)-2,2-dimethylpropanoate] | > 2e-05 |  | 4.2e-07
9 | C[C@@H](CO)NC(=O)c1cc(-c2ccc(Cl)cc2)nn(-c2cccc(C#N)c2)c1=O [Example 400, 6-(4-chlorophenyl)-2-(3-cyanophenyl)-N-[(2S)-1-hydroxypropan-2-yl]-3-oxo-2,3-dihydropyridazine-4-carboxamide] | > 2e-05 |  | 8e-07
10 | CC(C)[C@@H](CO)NC(=O)c1cc(-c2ccc(Cl)c(F)c2)nn(-c2cc(F)cc(F)c2)c1=O [Example 401, 6-(4-chloro-3-fluorophenyl)-2-(3,5-difluorophenyl)-N-[(2S)-1-hydroxy-3-methylbutan-2-yl]-3-oxo-2,3-dihydropyridazine-4-carboxamide] | > 2e-05 |  | 1e-07

Results, then the compound that gave them:

Row | IC50 [1] [M] | IC50 [2] [M] | IC50 [3] [M] | Structure (SMILES)
11 | > 2e-05 | 3.61e-08 |  | O=C(N[C@@H]1CCC[C@@H]1O)c1cc(-c2ccc(Cl)cc2)nn(-c2cccc(F)c2)c1=O (relative stereo) [Example 109, 6-(4-Chlorophenyl)-2-(3-fluorophenyl)-N-(cis-2-hydroxycyclopentyl)-3-oxo-2,3-dihydropyridazine-4-carboxamide]
12 |  | 3.1e-08 | 2.98e-08 | Cc1ccc(-c2cc(C(=O)NC(CO)C(C)C)c(=O)n(-c3cccc(F)c3)n2)cc1 (stereo not drawn) [Example 1, 2-(3-Fluorophenyl)-N-(1-hydroxy-3-methylbutan-2-yl)-6-(4-methylphenyl)-3-oxo-2,3-dihydropyridazine-4-carboxamide]
13 |  | 1.23e-07 | 6.4e-08 | Cc1ccc(-c2cc(C(=O)NC(C)CO)c(=O)n(-c3cccc(F)c3)n2)cc1 (stereo not drawn) [Example 7, 2-(3-Fluorophenyl)-N-(1-hydroxypropan-2-yl)-6-(4-methylphenyl)-3-oxo-2,3-dihydropyridazine-4-carboxamide]
14 |  | 3.54e-08 | 1.89e-08 | CC[C@@H](CO)NC(=O)c1cc(-c2ccc(Cl)cc2)nn(-c2cccc(F)c2)c1=O [Example 21, 6-(4-Chlorophenyl)-2-(3-fluorophenyl)-N-[(2S)-1-hydroxybutan-2-yl]-3-oxo-2,3-dihydropyridazine-4-carboxamide]
15 |  | 2.39e-08 | 3.6e-08 | Cc1ccc(-c2cc(C(=O)N[C@H](CO)C(C)C)c(=O)n(-c3cccc(F)c3)n2)cc1C [Example 83, 6-(3,4-dimethylphenyl)-2-(3-fluorophenyl)-N-[(2S)-1-hydroxy-3-methylbutan-2-yl]-3oxo-2,3-dihydropyridazine-4-carboxamide]
16 |  | 4.83e-08 | 4.55e-08 | CC[C@@H](CO)NC(=O)c1cc(-c2ccc(C)c(C)c2)nn(-c2cccc(F)c2)c1=O [Example 86, 6-(3,4-dimethylphenyl)-2-(3-fluorophenyl)-N-[(2S)-1-hydroxybutan-2-yl]-3-oxo-2,3-dihydropyridazine-4-carboxamide]
17 |  | 1.88e-07 | 1.15e-07 | Cc1ccc(-c2cc(C(=O)N[C@@H](C)CO)c(=O)n(-c3cccc(F)c3)n2)cc1C [Example 89, 6-(3,4-dimethylphenyl)-2-(3-fluorophenyl)-N-[(2S)-1-hydroxypropan-2-yl]-3-oxo-2,3-dihydropyridazine-4-carboxamide]
18 | > 2e-05 |  | 9.4e-07 | CC(C)OC[C@H](NC(=O)c1cc(-c2ccc(Cl)cc2)nn(-c2cccc(F)c2)c1=O)C(C)(C)O [Example 390, 6-(4-chlorophenyl)-2-(3-fluorophenyl)-N-[(2S)-3-hydroxy-1-isopropoxy-3-methylbutan-2-yl]-3-oxo-2,3-dihydropyridazine-4-carboxamide]
19 | > 2e-05 |  | 1e-08 | C[C@H](NC(=O)c1cc(-c2ccc(C(F)(F)F)cc2)nn(-c2cccc(F)c2)c1=O)C(C)(C)O [Example 391, 2-(3-fluorophenyl)-N-[(2S)-3-hydroxy-3-methylbutan-2-yl]-3-oxo-6-[4-(trifluoromethyl)phenyl]-2,3-dihydropyridazine-4-carboxamide]
20 | > 2e-05 |  | 1.3e-07 | O=C(N[C@H]1C[C@H](CO)C1)c1cc(-c2ccc(Cl)cc2)nn(-c2cccc(F)c2)c1=O [Example 396, 6-(4-chlorophenyl)-2-(3-fluorophenyl)-N-[trans-3-(hydroxymethyl)cyclobutyl]-3-oxo-2,3-dihydropyridazine-4-carboxamide]
21 | > 2e-05 |  | 1.8e-07 | O=C(NC[C@H](O)C(F)(F)F)c1cc(-c2ccc(CF)cc2)nn(-c2cccc(F)c2)c1=O [Example 397, 6-[4-(fluoromethyl)phenyl]-2-(3-fluorophenyl)-3-oxo-N-[(2S)-3,3,3-trifluoro-2-hydroxypropyl]-2,3-dihydropyridazine-4-carboxamide]
22 | > 2e-05 |  | 7.2e-07 | CC(C)(CNC(=O)c1cc(-c2ccc(Cl)cc2)nn(-c2cccc(F)c2)c1=O)C(=O)O [Example 399, 3-({[6-(4-Chlorophenyl)-2-(3-fluorophenyl)-3-oxo-2,3-dihydropyridazin-4-yl]carbonyl}amino)-2,2-dimethylpropanoic acid]
23 | > 2e-05 |  | 3.7e-07 | C[C@@H](CO)NC(=O)c1cc(-c2ccc(Cl)c(F)c2)nn(-c2cc(F)cc(F)c2)c1=O [Example 402, 6-(4-chloro-3-fluorophenyl)-2-(3,5-difluorophenyl)-N-[(2S)-1-hydroxypropan-2-yl]-3-oxo-2,3-dihydropyridazine-4-carboxamide]
24 | > 2e-05 |  | 3.1e-07 | O=C(NCC(O)C(F)(F)F)c1cc(-c2ccc(Cl)c(F)c2)nn(-c2cc(F)cc(F)c2)c1=O (stereo not drawn) [Example 403, 6-(4-chloro-3-fluorophenyl)-2-(3,5-difluorophenyl)-3-oxo-N-(3,3,3-trifluoro-2-hydroxypropyl)-2,3-dihydropyridazine-4-carboxamide]
